Results reported in the NIST ThermoML archive (doi:10.1016/j.jct.2009.05.004).
Numbers after ± are expanded uncertainties.

Experiment: mn = molality of the nth substance listed, in mol/kg
Details: Liquid, Vibrating tube method

[Br-].[Br-].[Zn+2] [zinc bromide] + CCO
Details	mass density [kg/m3]
298.15 K, 39998 kPa, m1 = 0.1696	842.43 ± 0.69
298.16 K, 5021 kPa, m1 = 1.887	1058.5 ± 0.62
298.16 K, 15032 kPa, m1 = 0.05681	807.29 ± 0.65
298.16 K, 15201 kPa, m1 = 0.9305	937 ± 0.62
298.16 K, 15612 kPa, m1 = 0.1696	825.53 ± 0.65
298.16 K, 15624 kPa, m1 = 0.3043	845.7 ± 0.64
298.16 K, 20014 kPa, m1 = 0.4384	869.08 ± 0.64
298.16 K, 29932 kPa, m1 = 0.3043	856.21 ± 0.66
298.16 K, 34951 kPa, m1 = 0.1696	839.25 ± 0.68
298.16 K, 35026 kPa, m1 = 1.887	1081.92 ± 0.64
298.17 K, 5457 kPa, m1 = 0.3043	837.46 ± 0.63
298.17 K, 25045 kPa, m1 = 0.05681	814.8 ± 0.67
298.17 K, 25140 kPa, m1 = 1.887	1074.74 ± 0.63
298.17 K, 25416 kPa, m1 = 0.1696	832.79 ± 0.66
298.17 K, 35024 kPa, m1 = 0.9305	951.54 ± 0.63
298.17 K, 39854 kPa, m1 = 0.3043	862.75 ± 0.68
313.11 K, 20023 kPa, m1 = 0.1696	817.08 ± 0.66
313.11 K, 39787 kPa, m1 = 1.887	1072.61 ± 0.63
313.12 K, 29927 kPa, m1 = 1.887	1065.27 ± 0.63
313.12 K, 34843 kPa, m1 = 1.887	1069.01 ± 0.63
313.12 K, 39907 kPa, m1 = 0.1696	831.46 ± 0.7
313.13 K, 4920 kPa, m1 = 0.4384	843.98 ± 0.63
313.13 K, 14572 kPa, m1 = 0.1696	812.62 ± 0.65
313.13 K, 24931 kPa, m1 = 0.1696	820.9 ± 0.67
313.13 K, 25016 kPa, m1 = 1.887	1061.4 ± 0.62
313.13 K, 35021 kPa, m1 = 0.05681	810.73 ± 0.7
313.14 K, 5014 kPa, m1 = 0.05681	786.55 ± 0.64
313.14 K, 5102 kPa, m1 = 0.3043	824.32 ± 0.63
313.14 K, 9947 kPa, m1 = 0.9305	919.42 ± 0.62
313.14 K, 29730 kPa, m1 = 0.4384	864.47 ± 0.66
313.14 K, 34690 kPa, m1 = 0.4384	868 ± 0.66
313.14 K, 39625 kPa, m1 = 0.3043	851.54 ± 0.68
313.15 K, 1265 kPa, m1 = 0.05681	783.06 ± 0.63
313.15 K, 1326 kPa, m1 = 0.3043	820.84 ± 0.63
313.15 K, 1425 kPa, m1 = 1.49	988.5 ± 0.62
313.15 K, 5027 kPa, m1 = 1.49	991.85 ± 0.62
313.15 K, 9994 kPa, m1 = 1.887	1048.64 ± 0.62
313.15 K, 10024 kPa, m1 = 0.05681	791.06 ± 0.65
313.15 K, 10245 kPa, m1 = 0.3043	828.9 ± 0.64
313.15 K, 10627 kPa, m1 = 1.49	996.89 ± 0.62
313.15 K, 15329 kPa, m1 = 1.49	1000.98 ± 0.62
313.15 K, 19809 kPa, m1 = 0.9305	927.83 ± 0.63
313.15 K, 19932 kPa, m1 = 0.4384	856.94 ± 0.64
313.15 K, 20014 kPa, m1 = 0.3043	837.09 ± 0.65
313.15 K, 20065 kPa, m1 = 0.05681	799.53 ± 0.67
313.15 K, 20324 kPa, m1 = 1.49	1005.17 ± 0.62
313.15 K, 24735 kPa, m1 = 0.4384	860.72 ± 0.65
313.15 K, 25035 kPa, m1 = 0.9305	932.01 ± 0.63
313.15 K, 25647 kPa, m1 = 1.49	1009.46 ± 0.62
313.15 K, 29901 kPa, m1 = 0.9305	935.73 ± 0.63
313.15 K, 29925 kPa, m1 = 0.1696	824.61 ± 0.68
313.15 K, 29954 kPa, m1 = 1.49	1012.81 ± 0.62
313.15 K, 29964 kPa, m1 = 0.05681	807.13 ± 0.69
313.15 K, 34524 kPa, m1 = 0.3043	848.04 ± 0.67
313.15 K, 34627 kPa, m1 = 1.49	1016.31 ± 0.62
313.15 K, 34851 kPa, m1 = 0.1696	828.08 ± 0.69
313.15 K, 39846 kPa, m1 = 1.49	1020.06 ± 0.62
313.15 K, 39878 kPa, m1 = 0.9305	942.83 ± 0.63
313.15 K, 39881 kPa, m1 = 0.4384	871.49 ± 0.67
313.15 K, 39914 kPa, m1 = 0.05681	814.03 ± 0.72
313.16 K, 1622 kPa, m1 = 0.4384	840.91 ± 0.62
313.16 K, 9861 kPa, m1 = 0.4384	848.44 ± 0.63
313.16 K, 14924 kPa, m1 = 0.4384	852.81 ± 0.64
313.16 K, 15002 kPa, m1 = 0.9305	923.82 ± 0.62
313.16 K, 15021 kPa, m1 = 0.05681	795.37 ± 0.66
313.16 K, 15032 kPa, m1 = 0.3043	833 ± 0.64
313.16 K, 29952 kPa, m1 = 0.3043	844.75 ± 0.67
313.16 K, 34974 kPa, m1 = 0.9305	939.43 ± 0.63
313.17 K, 10022 kPa, m1 = 0.1696	808.74 ± 0.64
313.17 K, 15110 kPa, m1 = 1.887	1053.14 ± 0.62
313.17 K, 20144 kPa, m1 = 1.887	1057.41 ± 0.62
313.17 K, 25481 kPa, m1 = 0.05681	803.78 ± 0.68
313.17 K, 25921 kPa, m1 = 0.3043	841.73 ± 0.66
313.18 K, 4967 kPa, m1 = 0.9305	914.91 ± 0.62
313.19 K, 1520 kPa, m1 = 0.9305	911.69 ± 0.62
313.19 K, 5004 kPa, m1 = 1.887	1044.1 ± 0.62
313.2 K, 1456 kPa, m1 = 0.1696	801 ± 0.63
313.2 K, 4848 kPa, m1 = 0.1696	804.13 ± 0.63
313.24 K, 1850 kPa, m1 = 1.887	1041.15 ± 0.62
333.12 K, 1327 kPa, m1 = 0.1696	782.58 ± 0.63
333.12 K, 1898 kPa, m1 = 0.9305	892.88 ± 0.62
333.12 K, 4943 kPa, m1 = 1.887	1024.22 ± 0.62
333.12 K, 9762 kPa, m1 = 0.4384	830.56 ± 0.63
333.12 K, 19882 kPa, m1 = 0.4384	840.07 ± 0.65
333.12 K, 39840 kPa, m1 = 1.887	1055.35 ± 0.63
333.13 K, 5145 kPa, m1 = 0.05681	769.04 ± 0.64
333.13 K, 24749 kPa, m1 = 0.4384	844.29 ± 0.66
333.13 K, 29989 kPa, m1 = 0.9305	919.06 ± 0.63
333.13 K, 34942 kPa, m1 = 0.9305	922.93 ± 0.63
333.14 K, 5187 kPa, m1 = 0.4384	825.95 ± 0.63
333.14 K, 19787 kPa, m1 = 0.9305	910.38 ± 0.63
333.14 K, 20014 kPa, m1 = 0.3043	820.51 ± 0.66
333.14 K, 25451 kPa, m1 = 0.05681	788.08 ± 0.69
333.14 K, 34776 kPa, m1 = 1.887	1051.46 ± 0.62
333.15 K, 1541 kPa, m1 = 0.05681	765.27 ± 0.63
333.15 K, 1627 kPa, m1 = 0.3043	802.62 ± 0.63
333.15 K, 1698 kPa, m1 = 1.49	969.07 ± 0.62
333.15 K, 4776 kPa, m1 = 0.1696	786.15 ± 0.63
333.15 K, 5045 kPa, m1 = 1.49	972.54 ± 0.62
333.15 K, 5098 kPa, m1 = 0.9305	896.23 ± 0.62
333.15 K, 10025 kPa, m1 = 0.05681	773.96 ± 0.65
333.15 K, 10027 kPa, m1 = 0.9305	901.19 ± 0.62
333.15 K, 10046 kPa, m1 = 1.887	1029.4 ± 0.62
333.15 K, 10624 kPa, m1 = 1.49	978.11 ± 0.62
333.15 K, 15214 kPa, m1 = 1.887	1034.43 ± 0.62
333.15 K, 15326 kPa, m1 = 1.49	982.61 ± 0.62
333.15 K, 15924 kPa, m1 = 0.3043	816.79 ± 0.65
333.15 K, 19921 kPa, m1 = 0.05681	783.27 ± 0.67
333.15 K, 19984 kPa, m1 = 1.49	986.89 ± 0.62
333.15 K, 24658 kPa, m1 = 1.49	991.01 ± 0.62
